# Reference: US20060142271A1, “Novel lapacho compounds and methods of use thereof” (priority 2002, published 2006)
# Experiments:
# HaCaT cells [1] = test: HaCaT keratinocyte proliferation assay (cell counting); format: cell-based, human
# Description: Anthralin, an antipsoriatic drug, was used as a positive control. Antiproliferative activity was measured directly by counting the dispersed cells under a phase-contrast microscope.
# HaCaT keratinocyte proliferation assay and LDH release were described previously in full detail (Muller et al. J. Med. Chem. 39: 3132-3138, 1996; Müller et al. J. Med. Chem. 37: 1660-1669, 1994). For the cancer cell line studies, exponentially growing cells were seeded at 1,000 cells per well in six-well plates and allowed to attach for 24 h. Compounds of the invention or β-lapachone, solubflized in DMSO, were added to the wells in micromolar concentrations. Control wells were treated with equivalent volumes of DMSO. After 4 h the supernatant was removed and fresh medium was added. Cultures were observed daily for 10-15 days and then were fixed and stained. Colonies of greater than 30 cells were scored as survivors. […]
# [2] = test system: breast cancer cell line MCF7; test: Cancer cell line colony survival assay, MCF7; format: cell-based, human; conditions: Homo sapiens, MCF7, read-out: AA in Cancer Cell Lines IC50 (μM) MCF7
# Description: (§1) HaCaT keratinocyte proliferation assay and LDH release were described previously in full detail (Muller et al. J. Med. Chem. 39: 3132-3138, 1996; Müller et al. J. Med. Chem. 37: 1660-1669, 1994). For the cancer cell line studies, exponentially growing cells were seeded at 1,000 cells per well in six-well plates and allowed to attach for 24 h. Compounds of the invention or β-lapachone, solubflized in DMSO, were added to the wells in micromolar concentrations. Control wells were treated with equivalent volumes of DMSO. After 4 h the supernatant was removed and fresh medium was added. Cultures were observed daily for 10-15 days and then were fixed and stained. Colonies of greater than 30 cells were scored as survivors.
# [3] = test system: colon cancer cell line SW480; test: Cancer cell line colony survival assay, SW480; format: cell-based, human; conditions: Homo sapiens, SW480, read-out: AA in Cancer Cell Lines IC50 (μM) SW480
# Description: as §1
# human cancer cell lines = conditions: wide spectrum of human cancer cell lines; read-out: antineoplastic activity against human cancer cell lines (IC50); cited from earlier work
# [4] = test system: cancer cell lines and normal cells; conditions: Li et al., PNAS 2003; cited from earlier work
# [5] = test system: human keratinocyte cell line HaCaT; conditions: Müller et al., J. Nat. Prod. 62 (1999); cited from earlier work
# [6] = test system: normal fresh or proliferating human PBMC; conditions: cited from earlier work
# [7] = test system: colon cancer cell line DLD1; test: Cancer cell line colony survival assay, DLD1; format: cell-based, human; conditions: Homo sapiens, DLD-1, read-out: AA in Cancer Cell Lines IC50 (μM) DLD1
# Description: as §1
# HaCaT cells [8] = format: cell-based, human
# Description: as §1
# The cytotoxicity of naphthoquinones has been thought to result, at least in part, from reactive oxygen species, generated during redox cycling between the […] and reduction products (Munday, R., Free Radic. Biol. Med., 22, 689-695, 1997), which cause peroxidative damage to membrane lipids. To assess the correlation of keratinocyte growth inhibition with membrane damage, the release of lactate dehydrogenase from the treated cells was also quantitated.
smiles,measurement,setting,value
"CC1(C)CCC2=C(O1)c1ccccc1C(=O)C2=O [β-lapachone, reference compound]",inhibition of HaCaT cell proliferation (in words),HaCaT cells [1]; HaCaT cells,inhibited cell proliferation
same,IC50,"HaCaT cells [1]; Homo sapiens, HaCaT, read-out: AA in HaCaT Cells IC50 (μM)",0.7 µM
same,IC50,[2],≤ 1 µM
same,IC50,[3],4 µM
same,IC50,human cancer cell lines,1 to 10 µM
same,induction of apoptosis in cancer versus normal cells,[4],induces apoptosis only in cancer cell lines and not in normal cells
same,inhibition of keratinocyte growth in HaCaT model (in words),[5],inhibition of keratinocyte growth comparable to the antipsoriatic drug anthralin
same,cytotoxic effects on normal human PBMC,[6],No cytotoxic effects were observed
same,IC50,[7],4 µM
same,LDH release compared to vehicle control (in words),HaCaT cells [8],significant LDH release as compared to vehicle
same,LDH (mU),"HaCaT cells [8]; human, 2 μM",329 mU
